Legend:
[1] = test system: MuSCs transplanted into tibialis anterior (TA) muscles of recipient mice; assay: Muscle stem cell transplantation, engraftment by bioluminescence imaging (BLI); format: in vivo, mouse; conditions: for BLI signal of engrafted MuSCs after secondary (notexin) injury: notexin re-injury one month after transplant
[2] = test system: tibialis anterior (TA) muscle; assay: Cardiotoxin muscle injury, TA histology (PAX7, myofiber cross-sectional area); format: in vivo, mouse; conditions: for effect on endogenous MuSCs in the absence of injury: no tissue damage; for increase in endogenous PAX7-expressing MuSCs / distribution of myofiber cross-sectional area: young mice; for increase in endogenous PAX7-expressing MuSCs: bolus three days after injury, fourteen days post injury; for distribution of myofiber cross-sectional area: day 14 post-cardiotoxin injury
Experimental: Muscle injury: We used an injury model entailing intramuscular injection of 10 μl of notexin (10 μg ml^−1; Latoxan) or cardiotoxin (10 μM; Latoxan) into the TA muscle. For cryoinjury, an incision was made in the skin overlying the TA muscle and a copper probe, chilled in liquid nitrogen, was applied to the TA muscle for three 10 s intervals, allowing the muscle to thaw between each application of the cryoprobe. When indicated, 48 hr after injury either 16,16-Dimethyl Prostaglandin E2 (dmPGE2) (13 nmol, Tocris, catalog #4027) or vehicle control (PBS) was injected into the TA muscle. The contralateral TA was used as an internal control. We collected tissues 14 days post-injury for analysis.
Tissue histology: We collected and prepared recipient TA muscle tissues for histology as previously described^5,6. We incubated transverse sections with anti-LAMININ (Millipore, clone A5, catalog #05-206, 1:200), and anti-PAX7 (Santa Cruz Biotechnology, catalog #sc-81648, 1:50) primary antibodies and then with AlexaFluor secondary Antibodies (Jackson ImmunoResearch Laboratories, 1:200). We counterstained nuclei with DAPI (Invitrogen). We acquired images with an AxioPlan2 epifluorescent microscope (Carl Zeiss Microimaging) with Plan NeoFluar 10×/0.30 NA or 20×/0.75 NA objectives (Carl Zeiss) and an ORCA-ER digital camera (Hamamatsu Photonics) controlled by the SlideBook (3i) software. The images were cropped using Adobe Photoshop with consistent contrast adjustments across all images from the same experiment. The image composites were generated using Adobe Illustrator. We analyzed the number of PAX7 positive cells using the MetaMorph Image Analysis software (Molecular Devices), and the fiber area using the Baxter Algorithms for Myofiber Analysis that identified the fibers and segmented the fibers in the image to analyze the area of each fiber. For PAX7 quantification we examined serial sections spanning a depth of at least 2 mm of the TA. For fiber area at least 10 fields of LAMININ-stained myofiber cross-sections encompassing over 400 myofibers were captured for each mouse as above. Data analyses were blinded. The researchers performing the imaging acquisition and scoring were unaware of treatment condition given to sample groups analyzed.
We used an injury model entailing intramuscular injection of 10 μl of notexin (10 μg ml^−1; Latoxan, catalog #L8104) or cardiotoxin (10 μM; Latoxan, catalog #L8102) into the Tibialis anterior (TA) muscle. For cryoinjury, an incision was made in the skin overlying the TA muscle and a copper probe, chilled in liquid nitrogen, was applied to the TA muscle for three 10 s intervals, allowing the muscle to thaw between each application of the cryoprobe. When indicated, 48 hr after injury either 16,16-Dimethyl Prostaglandin E2 (dmPGE2) (13 nmol, Tocris, catalog #4027), Indomethacin (35 μg, Sigma, catalog #17378) or vehicle control (PBS) was injected into the TA muscle. The contralateral TA was used as an internal control, except for the force measurement experiments where each mouse had both legs injured with the same condition and independent mice were used for each condition.
We collected and prepared recipient TA muscle tissues for histology as previously described (26, 27). For mouse injury assays we incubated transverse sections with Rabbit polyclonal anti-PGE2 (abcam, Catalog #ab2318, 1:100) Rat polyclonal anti-Laminin (Clone A5) (EMD Millipore, Catalog #05-206, 1:200), Mouse monoclonal anti-Pax7 (Santa Cruz, Catalog #sc-81648, 1:50), AlexaFluor 647-conjugated wheat germ agglutinin (WGA) antibody (W32466, Thermo Fisher Scientific), Rabbit polyclonal anti-GFP (A11122, Thermo Fisher Scientific, 1:500) and Mouse monoclonal anti-Embryonic Myosin Heavy Chain (DSHB, Catalog #F1.652, 1:10) primary antibodies and then with AlexaFluor secondary Antibodies (Jackson ImmunoResearch Laboratories, 1:500). We counterstained nuclei with DAPI (Invitrogen). […]

SMILES	regenerative capacity of MuSCs coinjected with PGE2, by BLI ([1]; 250 GFP/Luc MuSCs into injured TAs of NSG mice (Example 3))	regenerative capacity of cultured PGE2-treated young MuSCs by BLI ([1]; acute 1-day PGE2 in culture, 250 cells transplanted on day 7 into NOD-SCID mice)	BLI signal of engrafted MuSCs after secondary (notexin) injury [1]	muscle mass of treated TA ([2]; day 14 post-injury)	effect on endogenous MuSCs in the absence of injury [2]	increase in endogenous PAX7-expressing MuSCs [2] [%]	distribution of myofiber cross-sectional area [2]	engraftment of aged MuSCs coinjected with dmPGE2 ([1]; aged MuSCs, 250 cells, 13 nmol dmPGE2)	engraftment of young MuSCs coinjected with dmPGE2 ([1]; freshly isolated MuSCs, 250 cells, 13 nmol dmPGE2)	myofiber sizes ([2]; aged mice, fourteen days post-injury)	increase in the number of endogenous MuSCs ([2]; aged mice, single dmPGE2 injection, fourteen days post-injury) [%]
CCCCC[C@H](O)/C=C/[C@H]1[C@H](O)CC(=O)[C@@H]1C/C=C\CCCC(=O)O [PGE2, prostaglandin E2]	nearly two orders of magnitude	enhanced by an order of magnitude	spike in BLI signals	did not increase	no difference from vehicle-injected controls	65±7	striking shift in the distribution of myofibers from smaller toward larger sizes				
CCCCC(C)(C)[C@H](O)/C=C/[C@H]1[C@H](O)CC(=O)[C@@H]1C/C=C\CCCC(=O)O [dmPGE2, 16,16-dimethyl prostaglandin E2]			further increased in response to notexin injury		no effect	60±15	shifted toward larger sizes	significantly enhanced engraftment	significantly enhanced engraftment	concomitant increase in myofiber sizes	24±2

Source: US11738031B2, “Compositions and methods for preventing or treating muscle conditions” (The Board of Trustees of the Leland Stanford Junior …, priority 2017, dated 2023)
